Patent publication US9469650B2, “Melampomagnolide B derivatives” (BOARD OF TRUSTEES OF THE UNIVERSITY OF ARKANSAS, priority 2013, dated 2016)
Read-outs that look alike come from different tables or passages of the source.

Tests used:
NCI-H460 = test: panel of 60 human tumor cell lines, growth inhibition (Non-Small Cell Lung Cancer)
OVCAR-8 = test: panel of 60 human tumor cell lines, growth inhibition (Ovarian Cancer)
HS 578T = test: panel of 60 human tumor cell lines, growth inhibition (Breast Cancer); details: for Percent Growth: HS 578T
NCI-H226 = test: panel of 60 human tumor cell lines, growth inhibition (Non-Small Cell Lung Cancer)
SF-268 = test: panel of 60 human tumor cell lines, growth inhibition (CNS Cancer)
IGROV1 = test: panel of 60 human tumor cell lines, growth inhibition (Ovarian Cancer); details: for Percent Growth: IGROVI
SK-MEL-5 = test: panel of 60 human tumor cell lines, growth inhibition (Melanoma); details: for Percent Growth: 8K-MEL-5
M14 = test: as above
MCF7 = test: panel of 60 human tumor cell lines, growth inhibition (Breast Cancer); details: for Percent Growth: MCF7

## C=C1C(=O)O[C@H]2[C@H]1CC/C(COC(=O)CCC(=O)NCc1ccc(Cl)nc1)=C\CC[C@@]1(C)O[C@@H]21 [JVM 96]
HL-60(TB); Log10 Concentration −5.0
  Percent Growth: −5%
HL-60(TB); Log10 Concentration −6.0
  Percent Growth: 76%
HL-60(TB); Log10 Concentration −7.0
  Percent Growth: 78%
HL-60(TB); Log10 Concentration −8.0
  Percent Growth: 91%
NCI-H460; Homo sapiens, NCI-H460
  GI50: 21.3 µM
NCI-H460; Homo sapiens, NCI-H460, read-out: LC50
  CC50: > 100 µM
NCI-H460; Homo sapiens, NCI-H460, read-out: TGI
  IC (TGI): 53.9 µM
NCI-H460; NCI-H460, Log10 Concentration −4.0
  Percent Growth: −33%
NCI-H460; NCI-H460, Log10 Concentration −5.0
  Percent Growth: 91%
NCI-H460; NCI-H460, Log10 Concentration −6.0
  Percent Growth: 101%
NCI-H460; NCI-H460, Log10 Concentration −7.0
  Percent Growth: 102%
NCI-H460; NCI-H460, Log10 Concentration −8.0
  Percent Growth: 102%
OVCAR-8; Homo sapiens, OVCAR-8
  GI50: 12.5 µM
OVCAR-8; Homo sapiens, OVCAR-8, read-out: LC50
  CC50: 72 µM
OVCAR-8; Homo sapiens, OVCAR-8, read-out: TGI
  IC (TGI): 30 µM
OVCAR-8; OVCAR-8, Log10 Concentration −4.0
  Percent Growth: −69%
OVCAR-8; OVCAR-8, Log10 Concentration −5.0
  Percent Growth: 63%
OVCAR-8; OVCAR-8, Log10 Concentration −6.0
  Percent Growth: 105%
OVCAR-8; OVCAR-8, Log10 Concentration −7.0
  Percent Growth: 95%
OVCAR-8; OVCAR-8, Log10 Concentration −8.0
  Percent Growth: 95%
HS 578T; Log10 Concentration −4.0
  Percent Growth: −5%
HS 578T; Log10 Concentration −5.0
  Percent Growth: 61%
HS 578T; Log10 Concentration −6.0
  Percent Growth: 94%
HS 578T; Log10 Concentration −7.0
  Percent Growth: 101%
HS 578T; Log10 Concentration −8.0
  Percent Growth: 95%
HS 578T; Homo sapiens, Hs-578T
  GI50: 14.7 µM
HS 578T; Homo sapiens, Hs-578T, read-out: LC50
  CC50: > 100 µM
HS 578T; Homo sapiens, Hs-578T, read-out: TGI
  IC (TGI): 63.7 µM
NCI-H226; Homo sapiens, NCI-H226
  GI50: 12.7 µM
NCI-H226; Homo sapiens, NCI-H226, read-out: TGI
  IC (TGI): 32 µM
NCI-H226; NCI-H226, Log10 Concentration −4.0
  Percent Growth: −61%
NCI-H226; NCI-H226, Log10 Concentration −5.0
  Percent Growth: 63%
NCI-H226; NCI-H226, Log10 Concentration −6.0
  Percent Growth: 94%
NCI-H226; NCI-H226, Log10 Concentration −7.0
  Percent Growth: 97%
NCI-H226; NCI-H226, Log10 Concentration −8.0
  Percent Growth: 96%
SF-268; Homo sapiens, SF-268
  GI50: 10.5 µM
SF-268; Homo sapiens, SF-268, read-out: LC50
  CC50: 67.6 µM
SF-268; Homo sapiens, SF-268, read-out: TGI
  IC (TGI): 26.7 µM
SF-268; SF-268, Log10 Concentration −4.0
  Percent Growth: −71%
SF-268; SF-268, Log10 Concentration −5.0
  Percent Growth: 52%
SF-268; SF-268, Log10 Concentration −6.0
  Percent Growth: 97%
SF-268; SF-268, Log10 Concentration −7.0
  Percent Growth: 98%
SF-268; SF-268, Log10 Concentration −8.0
  Percent Growth: 97%
IGROV1; Homo sapiens, IGROV-1
  GI50: 16.7 µM
IGROV1; Homo sapiens, IGROV-1, read-out: LC50
  CC50: 95.5 µM
IGROV1; Homo sapiens, IGROV-1, read-out: TGI
  IC (TGI): 39.9 µM
IGROV1; Log10 Concentration −4.0
  Percent Growth: −53%
IGROV1; Log10 Concentration −5.0
  Percent Growth: 79%
IGROV1; Log10 Concentration −6.0
  Percent Growth: 107%
IGROV1; Log10 Concentration −7.0
  Percent Growth: 106%
IGROV1; Log10 Concentration −8.0
  Percent Growth: 107%
SK-MEL-5; Log10 Concentration −4.0
  Percent Growth: −89%
SK-MEL-5; Log10 Concentration −5.0
  Percent Growth: 53%
SK-MEL-5; Log10 Concentration −7.0
  Percent Growth: 98%
SK-MEL-5; Log10 Concentration −8.0
  Percent Growth: 97%
SK-MEL-5; Homo sapiens, SK-MEL-5
  GI50: 10.5 µM
SK-MEL-5; Homo sapiens, SK-MEL-5, read-out: LC50
  CC50: 53.1 µM
SK-MEL-5; Homo sapiens, SK-MEL-5, read-out: TGI
  IC (TGI): 23.7 µM
M14; Homo sapiens, M14
  GI50: 5.75 µM
M14; Homo sapiens, M14, read-out: LC50
  CC50: 50.3 µM
M14; Homo sapiens, M14, read-out: TGI
  IC (TGI): 19.5 µM
M14; M14, Log10 Concentration −4.0
  Percent Growth: −86%
M14; M14, Log10 Concentration −5.0
  Percent Growth: 35%
M14; M14, Log10 Concentration −6.0
  Percent Growth: 96%
M14; M14, Log10 Concentration −7.0
  Percent Growth: 91%
M14; M14, Log10 Concentration −8.0
  Percent Growth: 98%
MCF7; Homo sapiens, MCF7, MCF7
  GI50: 3.2 µM
MCF7; Homo sapiens, MCF7, read-out: LC50
  CC50: 58.9 µM
MCF7; Homo sapiens, MCF7, read-out: TGI
  IC (TGI): 13.6 µM
MCF7; Log10 Concentration −4.0
  Percent Growth: −68%
MCF7; Log10 Concentration −5.0
  Percent Growth: 10%
MCF7; Log10 Concentration −6.0
  Percent Growth: 90%
MCF7; Log10 Concentration −7.0
  Percent Growth: 89%
MCF7; Log10 Concentration −8.0
  Percent Growth: 90%
